Laboratory results: PMC7139375 (2020)

Legend:
[1] = system: DDT_13 (DNA, aptamer) TCCAGCACTCCACGCATAACGAATTGTGCTCAATGCGCCCCTGCAGTGAATGTGGAATTTGTTATGCGTGCGACGGTGAA; assay: AuNPs colorimetric assay; settings: room temperature
[2] = system: DDT_13 (DNA, aptamer) TCCAGCACTCCACGCATAACGAATTGTGCTCAATGCGCCCCTGCAGTGAATGTGGAATTTGTTATGCGTGCGACGGTGAA; assay: SYBR Green I fluorescence assay; settings: 137 mM NaCl, 2.5 mM KCl, 0.5 mM MgCl2, 1 mM CaCl2; phosphate binding buffer pH 7.2, room temperature; interferent prepared at 5 μM

Compound	binding ([1]; interferent prepared at 16 μM)	binding ([1]; interferent prepared at 7.4 μM)	binding [2]
O=C(O)C(F)(F)C(F)(F)C(F)(F)C(F)(F)C(F)(F)C(F)(F)C(F)(F)F	no	–	–
CC(C)(c1cc(Br)c(O)c(Br)c1)c1cc(Br)c(O)c(Br)c1	–	no	–
O=C(O)C(c1ccc(Cl)cc1)c1ccc(Cl)cc1	no	–	no
O=C(O)CNCP(=O)(O)O	no	–	no
CCOC(=O)C(C)=O	no	–	–
